Laboratory results taken from the supplement of paper PMC5908809.

Experiments:
[1] = tested on: normal NK cells expanded with K562-aAPC; test: percent inhibition of viability; higher = more inhibition; details: 72 h, IL-2 2.5 ng/mL
Protocol: (§1)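 Drug sensitivity and resistance testing on K562-aAPC-expanded normal NK cells: 5 concentrations (10-fold steps over a 10,000-fold range), 72 h at 37 °C, viability by CellTiter-Glo normalised to DMSO and benzethonium chloride controls; DSS from the fitted curve.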

DERL-7 (IL-2 2.5 ng/mL) [2] = test: as above; details: 72 h
IMC-1 (IL-2 20 ng/mL) [3] = test: as above; details: 72 h
KAI3 (IL-2 2.5 ng/mL) [4] = test: as above; details: 72 h
KHYG-1 (IL-2 2.5 ng/mL) [5] = test: as above; details: 72 h
NK-92 (IL-2 2.5 ng/mL) [6] = test: as above; details: 72 h
NK-YS (IL-2 2.5 ng/mL) [7] = test: as above; details: 72 h
NKL (IL-2 2.5 ng/mL) [8] = test: as above; details: 72 h
SNK-6 (IL-2 2.5 ng/mL) [9] = test: as above; details: 72 h
YT (IL-2 2.5 ng/mL) [10] = test: as above; details: 72 h
[11] = tested on: normal primary NK cells, pool 1 (3 donors) (IL-2 2.5 ng/mL); test: as above; details: 72 h
[12] = tested on: normal primary NK cells, pool 1 (3 donors), resting (IL-2 0 ng/mL); test: as above; details: 72 h
[13] = tested on: normal primary NK cells, pool 2 (3 donors) (IL-2 2.5 ng/mL); test: as above; details: 72 h
[14] = tested on: normal primary NK cells, pool 3 (3 donors) (IL-2 2.5 ng/mL); test: as above; details: 72 h
[15] = tested on: normal NK cells expanded with K562-aAPC; test: drug sensitivity score (DSS) (DSS units); higher = more sensitive; extreme values may be limits of the assay; details: 72 h; IL-2 2.5 ng/mL
Protocol: as §1

DERL-7 (IL-2 2.5 ng/mL) [16] = test: as above; details: 72 h
IMC-1 (IL-2 20 ng/mL) [17] = test: as above; details: 72 h
KAI3 (IL-2 2.5 ng/mL) [18] = test: as above; details: 72 h
KHYG-1 (IL-2 2.5 ng/mL) [19] = test: as above; details: 72 h
NK-92 (IL-2 2.5 ng/mL) [20] = test: as above; details: 72 h
NK-YS (IL-2 2.5 ng/mL) [21] = test: as above; details: 72 h
NKL (IL-2 2.5 ng/mL) [22] = test: as above; details: 72 h
SNK-6 (IL-2 2.5 ng/mL) [23] = test: as above; details: 72 h
YT (IL-2 2.5 ng/mL) [24] = test: as above; details: 72 h
[25] = tested on: normal primary NK cells, pool 1 (3 donors) (IL-2 2.5 ng/mL); test: as above; details: 72 h
[26] = tested on: normal primary NK cells, pool 1 (3 donors), resting (IL-2 0 ng/mL); test: as above; details: 72 h
[27] = tested on: normal primary NK cells, pool 2 (3 donors) (IL-2 2.5 ng/mL); test: as above; details: 72 h
[28] = tested on: normal primary NK cells, pool 3 (3 donors) (IL-2 2.5 ng/mL); test: as above; details: 72 h

Nc1ncnc2c1nc(Cl)n2[C@@H]1O[C@H](CO)[C@@H](O)[C@H]1O [8-chloro-adenosine] (max concentration tested 50000 nM)
percent inhibition of viability [%]
Details	5 nM	50 nM	500 nM	5000 nM	50000 nM
DERL-7 (IL-2 2.5 ng/mL) [2]	-0.76	-2.87	38.2	96.9	101
IMC-1 (IL-2 20 ng/mL) [3]	-4.61	-4.66	-2.73	-11.7	66.7
KAI3 (IL-2 2.5 ng/mL) [4]	-13.1	-12.4	38.3	86.7	92.9
KHYG-1 (IL-2 2.5 ng/mL) [5]	-6.84	-4.5	1.43	75.4	94
NK-92 (IL-2 2.5 ng/mL) [6]	-20.2	-17.7	8.7	44.5	64
NK-YS (IL-2 2.5 ng/mL) [7]	-8.76	-5.07	22.4	73.6	92.2
NKL (IL-2 2.5 ng/mL) [8]	-21.8	-24.6	-10.7	40.7	75.6
SNK-6 (IL-2 2.5 ng/mL) [9]	21.5	20.6	46.5	92.8	96.9
YT (IL-2 2.5 ng/mL) [10]	-2.82	-1.05	1.56	66.9	72.2
[1]	-0.51	-6.13	2.57	35.4	73
[11]	-2.27	-6.47	-3.95	30.1	77.2
[12]	-17.2	-29.2	-19.8	36.1	78.2
[13]	-8.69	0.94	1.41	28	71.1
[14]	-18.1	-3.17	-4.4	17.3	57.7

Details	drug sensitivity score
DERL-7 (IL-2 2.5 ng/mL) [16]	22.6
IMC-1 (IL-2 20 ng/mL) [17]	2.97
KAI3 (IL-2 2.5 ng/mL) [18]	21.9
KHYG-1 (IL-2 2.5 ng/mL) [19]	14
NK-92 (IL-2 2.5 ng/mL) [20]	9.34
NK-YS (IL-2 2.5 ng/mL) [21]	16.3
NKL (IL-2 2.5 ng/mL) [22]	9.19
SNK-6 (IL-2 2.5 ng/mL) [23]	23.8
YT (IL-2 2.5 ng/mL) [24]	12.5
[15]	8.27
[25]	8.37
[26]	8.97
[27]	7.63
[28]	5.7

COc1cc(O)c2c(c1)/C=C/C[C@H](O)[C@H](O)C(=O)/C=C\C[C@H](C)OC2=O [(5Z)-7-Oxozeaenol] (max concentration tested 10000 nM)
percent inhibition of viability [%]
Details	1 nM	10 nM	100 nM	1000 nM	10000 nM
DERL-7 (IL-2 2.5 ng/mL) [2]	-5.8	2.14	10.7	66.3	101
IMC-1 (IL-2 20 ng/mL) [3]	-4.21	-3.28	-4.71	-7.11	48.9
KAI3 (IL-2 2.5 ng/mL) [4]	0.25	0.75	5.8	59	105
KHYG-1 (IL-2 2.5 ng/mL) [5]	0.21	-0.62	3.17	83.9	109
NK-92 (IL-2 2.5 ng/mL) [6]	-20.1	-30	-17.5	26.2	104
NK-YS (IL-2 2.5 ng/mL) [7]	-3.96	-2.39	8.28	41.9	105
NKL (IL-2 2.5 ng/mL) [8]	-8.24	17.5	38.5	80	110
SNK-6 (IL-2 2.5 ng/mL) [9]	-2.4	-7.72	-14.8	23.5	95
YT (IL-2 2.5 ng/mL) [10]	-2.81	-5.3	6.58	46.2	105
[1]	-4.98	-3.35	-1.51	18.7	94.8
[11]	-6.25	6.9	22.8	45.6	98.5
[12]	-25.1	10.7	9.8	54.5	92
[13]	-15.9	1.06	2.6	22.8	96.8
[14]	-13.2	9.87	4.11	13.6	98.2

Details	drug sensitivity score
DERL-7 (IL-2 2.5 ng/mL) [16]	14.1
IMC-1 (IL-2 20 ng/mL) [17]	2.11
KAI3 (IL-2 2.5 ng/mL) [18]	12.6
KHYG-1 (IL-2 2.5 ng/mL) [19]	15.6
NK-92 (IL-2 2.5 ng/mL) [20]	9.5
NK-YS (IL-2 2.5 ng/mL) [21]	11
NKL (IL-2 2.5 ng/mL) [22]	20.5
SNK-6 (IL-2 2.5 ng/mL) [23]	8.87
YT (IL-2 2.5 ng/mL) [24]	11.4
[15]	8.28
[25]	12.1
[26]	12
[27]	8.91
[28]	7.72
